Reference: patent publication US20050137247A1, “Methods and compositions for treatment of hypertension” (The Brigham and Women's Hospital, Inc., priority 2003, published 2005)
Values joined by “and” are separate entries in the source; they are usually repeats but may differ in a detail not shown here. Identical values can stand only once. “Also recorded” adds a separate entry of the source.

Columns and labels:
Assay type in all cases: in vivo, human
[1] = test system: male patients with untreated, uncomplicated, essential hypertension; assay: 24-hour ambulatory blood pressure and heart rate, randomized double-blind placebo-controlled crossover trial
Text: Patients. Sixteen male patients with untreated, uncomplicated, essential hypertension were included in the study. Women were excluded to prevent possible interference of the menstrual cycle and oral anticonceptives on cardiovascular and circadian regulation. Patients were considered hypertensive, with a daytime ambulatory blood pressure between 140-179 mm Hg systolic or between 90-109 mm Hg diastolic. Secondary hypertension was excluded by medical history and routine laboratory tests. Five patients had never received antihypertensive medication; in the others antihypertensive treatment was stopped at least three weeks before participation. Their mean (±SD) age was 55±8 (range 36-68) years and mean BMI was 26.8±.1.7 (23.3-29.1) kg/m^2. Mean self reported habitual waking and bedtimes were 06:38 a.m. ±55 minutes and 11:29 p.m. ±26 minutes, respectively. […] Five days before and during ambulatory blood pressure measurements, subjects maintained fixed sleep-wake cycles according to their habitual sleep-wake cycle. All procedures were carried out with adequate understanding and written consent of the subjects and were approved by the Ethics Committee of the Academic Medical Center of the University of Amsterdam.
Study Design. […] On assessment days, patients abstained from heavy physical exercise, daytime napping, alcohol and nicotine consumption and coffee was restricted to two consumptions per day during breakfast or lunch. Meal times were restricted to the following periods: breakfast 1 to 1.5 hours after waking; lunch 11 to 10 hours before bedtime; and dinner 5 to 4 hours before bedtime.
(§1) Measurements. […] Ambulatory blood pressure was measured every half hour for 32 hours, from 8 hours before bedtime until bedtime the next day. In addition, noninvasive finger arterial blood pressure recordings were performed by Finometer (TNO Biomedical Instruments, Amsterdam, The Netherlands) (Bos, W. J., et al., Circulation, 94 (1996) 1870-5), to estimate changes in total peripheral resistance, stroke volume, and cardiac output, as possible explanations for changes in blood pressure. […] During all ambulatory blood pressure recordings, the subjects reported sleep details in a sleep-wake diary and wore an Actiwatch (Cambridge Neurotechnology Ltd, Cambridge, UK), a piezo-electric accelerometer, on the non-dominant wrist to assess motor activity at 1 min intervals for the estimation of sleep quality.
(§2) Data analysis. Sleep blood pressure was defined as the mean blood pressure from the time of falling asleep until the time of awakening, as determined by actigraphy. Awake blood pressure was defined as the mean blood pressure during the remaining portion of the day. Continuous Finometer data were analyzed by Beatscope software (TNO-Biomedical Instruments, Amsterdam, The Netherlands) (Bos, W. J., et al., Circulation, 94 (1996) 1870-5). Periods of 5 min with a stable blood pressure signal were used for both supine and standing periods. To accurately determine the sleeping period and estimate sleep quality, automatic sleep/wake scoring was performed with Actiwatch Sleep Analysis 98 (Cambridge Neurotechnology Ltd, V4.15), with sensitivity set to medium, on the actigraphy data between “bed time” and “get up time” derived from the sleep-wake diaries. Three sleep variables were objectively computed by this analysis. ‘Sleep latency’ was the calculated time between bed time and sleep onset. The time asleep was termed actual sleep time. The percentage of time asleep while in bed was defined as ‘sleep efficiency’.
Statistics. Because not all variables were normally distributed (Shapiro's-Wilk's W Test), non-parametric tests were used as required. Consequently, Altman's crossover analysis methods were applied (Altman, D. G., Crossover trials, Practical statistics for medical research, Vol. 1, Chapman and Hall. London, 1991, pp. 467-471). […]

[2] = test system: male patients with untreated, uncomplicated, essential hypertension; assay: 24-hour rhythm analysis of ambulatory blood pressure (peaked and skewed cosine fit)
Text: Statistics. Because not all variables were normally distributed (Shapiro's-Wilk's W Test), non-parametric tests were used as required. Consequently, Altman's crossover analysis methods were applied (Altman, D. G., Crossover trials, Practical statistics for medical research, Vol. 1, Chapman and Hall. London, 1991, pp. 467-471). […] Student's t-tests for independent variables or Mann-Whitney U tests were applied for all dependent variables to test a carryover effect for (1) single treatment periods, and (2) repeated treatment periods. Correlation between a change in sleep quality and a change in sleep blood pressure was tested by linear correlation. The 24-hour rhythm in blood pressure was fitted by standard cyclic regression models: cosine, cosine with second harmonic, skewed cosine, peaked cosine, and skewed and peaked cosine analysis (Batschelet, E., Circular Statistics in Biology, Academic Press, 1981, 371 pp.). Of these, the latter best fitted the data as indicated by the Akaike's Information Criterion (AIC) (de Leeuw, J., introduction to Akaike (1973) Information Theory and an Extension of the Maximum Likelihood Principle. In S. Kotz and N. L. Johnson (Eds.), Breakthroughs in statistics, Vol. 1, Springer-Verlag. London, 1992 pp. 599-609) and was used for subsequent analysis. Two-tailed p values lower than 0.05 were considered to indicate statistical significance. All group data are presented as means±standard deviation (SD) or means including 95% confidence interval (95% CI).
24-Hour rhythm analysis of ambulatory blood pressure. For 24-hour rhythm analysis of ambulatory blood pressure, the peaked and skewed cosine analysis was used. […] The decrease in minimum and mean systolic blood pressure was not significant (−6±15 mm Hg; p=0. 13 and −5±12 mm Hg; p=0. 19).

[3] = test system: male patients with untreated, uncomplicated, essential hypertension; assay: Finger arterial blood pressure recordings by Finometer; settings: repeated melatonin; supine resting or standing, daytime
Experimental: as §1, §2

[4] = test system: male patients with untreated, uncomplicated, essential hypertension; assay: Actigraphic estimates of sleep quality (Actiwatch)
Experimental: as §1, §2

[5] = 3 weeks melatonin vs 3 weeks placebo, not significant
[6] = acute (single) melatonin 2.5 mg vs single placebo
[7] = after 3 weeks melatonin 2.5 mg orally 1 hour before bedtime, mean ± SD
[8] = individual patient 14, relative to placebo level (FIG. 2)
[9] = 3 weeks melatonin vs 3 weeks placebo
[10] = repeated melatonin vs placebo, no effect

COc1ccc2[nH]cc(CCNC(C)=O)c2c1 [Melatonin, N-acetyl-5-methoxy-tryptamine]
change in awake diastolic blood pressure [1, 5]: −1 mm Hg | change in awake systolic blood pressure [1, 5]: −5 mm Hg | effect on diastolic blood pressure awake [1, 6]: no effect | effect on diastolic blood pressure whilst asleep [1, 6]: no effect | effect on systolic blood pressure awake [1, 6]: no effect | effect on systolic blood pressure whilst asleep [1, 6]: no effect | Sleeping Period Distolic BP [1, 7]: 82.4 ± 4.0 | Sleeping Period Heart Rate [1, 7]: 61.1 ± 6.5 | Sleeping Period Systolic BP [1, 7]: 130.6 ± 10.0 | Waking Period Distolic BP [1, 7]: 95.4 ± 7.7 | Waking Period Heart Rate [1, 7]: 71.2 ± 7.8 | Waking Period Systolic BP [1, 7]: 147.6 ± 12.3 | effect of repeated melatonin on waking diastolic blood pressure, patient 14 [1, 8]: −27 mm Hg | effect of repeated melatonin on waking systolic blood pressure, patient 14 [1, 8]: −53 mm Hg | reduction of sleep diastolic blood pressure ([1]; repeated (3 weeks daily) 2.5 mg melatonin 1 hour before bedtime vs 3 weeks placebo): 4±6 mm Hg and 4 mm Hg | effect on heart rate ([1]; repeated (3 weeks daily) 2.5 mg melatonin vs placebo): without a change; also recorded: did not affect | effect on blood pressure ([1]; single dose of melatonin 2.5 mg): no effect | decrease of calculated mean diastolic blood pressure [2, 9]: 4±6 mm Hg | decrease of calculated minimum diastolic blood pressure [2, 9]: 5±7 mm Hg | increase of day-night rhythm amplitude of diastolic blood pressure [2, 9]: 25% | increase of day-night rhythm amplitude of systolic blood pressure [2, 9]: 15% | change in mean systolic blood pressure [2, 5]: −5±12 mm Hg | change in minimum systolic blood pressure [2, 5]: −6±15 mm Hg | effect on time of the minimum blood pressure ([2]; repeated melatonin vs placebo): no effects | change in maximum diastolic blood pressure [2, 10]: −1±5 mm Hg | change in maximum systolic blood pressure [2, 10]: −2±12 mm Hg | effect on blood pressure (Finometer) [3]: no elect | effect on cardiac output (Finometer) [3]: no elect | effect on heart rate (Finometer) [3]: no elect | effect on stroke volume (Finometer) [3]: no elect | effect on total peripheral resistance (Finometer) [3]: no elect | effect on actual sleep time ([4]; acute melatonin application): no significant effect | effect on sleep latency ([4]; acute melatonin application): no significant effect | sleep latency ([4]; after repeated melatonin (placebo 33 minutes)): 22 min | actual sleep time ([4]; after repeated melatonin (placebo 5.6 hours)): 6.1 h
